Reference: patent US7053107B2, “Indazole compounds and pharmaceutical compositions for inhibiting protein kinases, and methods for their use” (Agouron Pharmaceuticals, Inc., priority 2002, dated 2006)

Experiments:
LCK = biological target: T1, LCK (Homo sapiens, UniProt P06239, C224D/P223M); assay: Lymphocyte-Specific Protein-Tyrosine Kinase (LCK) spectrophotometric assay; type: biochemical; conditions: 1 μM compound; read-out: LckP* % inhibit @1 μM
T1 construct: starting from amino acid residue 223 to the end of the protein at residue 509; made in house; host or cells: insect cells
T1 sequence (P06239 223-509 P223M/C224D): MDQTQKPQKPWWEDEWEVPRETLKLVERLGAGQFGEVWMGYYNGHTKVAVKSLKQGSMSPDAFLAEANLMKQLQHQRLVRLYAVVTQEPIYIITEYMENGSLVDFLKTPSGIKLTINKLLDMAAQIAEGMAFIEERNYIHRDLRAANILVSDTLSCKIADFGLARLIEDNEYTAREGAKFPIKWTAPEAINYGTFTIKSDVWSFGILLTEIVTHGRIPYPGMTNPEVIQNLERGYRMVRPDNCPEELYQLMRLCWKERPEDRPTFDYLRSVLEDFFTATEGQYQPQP

[1] = system: human umbilical vein endothelial cells (HUVEC); assay: HUVEC Proliferation Assay (VEGF-stimulated); type: cell-based
Method: This assay determines the ability of a test compound to inhibit the growth factor-stimulated proliferation of human umbilical vein endothelial cells (“HUVEC”). HUVEC cells (passage 3–4, Clonetics, Corp.) were thawed into EGM2 culture medium (Clonetics Corp) in T75 flasks. Fresh EGM2 medium was added to the flasks 24 hours later. Four or five days later, cells were exposed to another culture medium (F12K medium supplemented with 10% fetal bovine serum (FBS), 60 μg/mL endothelial cell growth supplement (ECGS), and 0.1 mg/mL heparin). Exponentially-growing HUVEC cells were used in experiments thereafter. Ten to twelve thousand HUVEC cells were plated in 96-well dishes in 100 μl of rich, culture medium (described above). The cells were allowed to attach for 24 hours in this medium. The medium was then removed by aspiration and 105 μl of starvation media (F12K+1% FBS) was added to each well. After 24 hours, 15 μl of test agent dissolved in 1% DMSO in starvation medium or this vehicle alone was added into each treatment well; the final DMSO concentration was 0.1%. One hour later, 30 μl of VEGF (30 ng/mL) in starvation media was added to all wells except those containing untreated controls; the final VEGF concentration was 6 ng/mL. Cellular proliferation was quantified 72 hours later by MTT dye reduction, at which time cells were exposed for 4 hours MTT (Promega Corp.). Dye reduction was stopped by addition of a stop solution (Promega Corp.) and absorbance at 595λ was determined on a 96-well spectrophotometer plate reader.
IC50 values were calculated by curve-fitting the response of A^595 to various concentrations of the test agent; typically, seven concentrations separated by 0.5 log were employed, with triplicate wells at each concentration. For screening compound library plates, one or two concentrations (one well per concentration) were employed, and the % inhibition was calculated by the following formula: % inhibition=(control−test)[…](control−starvation) where
control=A^595 when VEGF is present without test agent
test=A^595 when VEGF is present with test agent
starvation=A^595 when VEGF and test agent are both absent.

FGF-R1 = biological target: T2, FGF-R1 (Homo sapiens, UniProt P11362, C488A/C584S/L457V); assay: Fibroblast Growth Factor (FGF-R) spectrophotometric assay; type: biochemical; conditions: 1 μM compound; read-out: FGF-P % inhibit @1 μM
T2 construct: starting from the endogenous methionine residue 456 to glutamate 766; made in house; host or cells: baculovirus vector expression system
T2 sequence (P11362 456-766 L457V/C488A/C584S): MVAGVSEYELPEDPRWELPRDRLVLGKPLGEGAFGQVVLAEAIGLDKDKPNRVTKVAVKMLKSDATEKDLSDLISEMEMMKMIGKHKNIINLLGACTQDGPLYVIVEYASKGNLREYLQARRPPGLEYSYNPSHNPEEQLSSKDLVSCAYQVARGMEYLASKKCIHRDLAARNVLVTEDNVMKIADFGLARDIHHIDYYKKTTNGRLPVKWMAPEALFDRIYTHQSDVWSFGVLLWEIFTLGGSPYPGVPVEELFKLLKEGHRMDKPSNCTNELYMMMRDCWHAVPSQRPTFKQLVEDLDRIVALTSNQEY
From the text: The intracellular kinase domain of human FGF-R1 was expressed using the baculovirus vector expression system starting from the endogenous methionine residue 456 to glutamate 766, according to the residue numbering system of Mohammadi et al., Mol. Cell. Biol., 16, 977–989 (1996). In addition, the construct also has the following 3 amino acid substitutions: L457V, C488A, and C584S.
(§1) The production of ADP from ATP that accompanies phosphoryl transfer was coupled to oxidation of NADH using phosphoenolpyruvate (PEP) and a system having pyruvate kinase (PK) and lactic dehydrogenase (LDH). The oxidation of NADH was monitored by following the decrease of absorbance at 340 nm (e340=6.22 cm^−1 mM^−1) using a Beckman DU 650 spectrophotometer. Assay conditions for phosphorylated VEGF-R2A50 (indicated as FLVK-P in the tables below) were the following: 1 mM PEP; 250 μM NADH; 50 units of LDH/mL; 20 units of PK/mL; 5 mM DTT; 5.1 mM poly(E4Y1); 1 mM ATP; and 25 mM MgCl2 in 200 mM HEPES, pH 7.5. Assay conditions for unphosphorylated VEGF-R2Δ50 (indicated as FLVK in the tables) were the following: 1 mM PEP; 250 μM NADH; 50 units of LDH/mL; 20 units of PK/mL; 5 mM DTT; […]; 3 mM ATP; and 60 mM MgCl2 and 2 mM MnCl2 in 200 mM HEPES, pH 7.5. Assays were initiated with 5 to 40 nM of enzyme. Ki values were determined by measuring enzyme activity in the presence of varying concentrations of test compounds. The data were analyzed using Enzyme Kinetic and Kaleidagraph software.
The spectrophotometric assay was carried out as described above for VEGF-R2, except for the following changes in concentration: FGF-R=50 nM, ATP=2 mM, and poly(E4Y1)=15 mM.

[2] = biological target: T3, unphosphorylated VEGF-R2Δ50 (Homo sapiens, UniProt P35968, DEL940-989/E990V); assay: VEGF-R2 coupled spectrophotometric assay, unphosphorylated construct (FLVK); type: biochemical; conditions: for inhibition at 0.05 µM: % inhibition at 50 nM compound, read-out: FLVK Ki % inh @ 50 nM
T3 construct: VEGF-R2Δ50 contains residues 806–939 and 990–1171; made in house; host or cells: baculovirus/insect cell system
T3 sequence (P35968 with tags, fused parts or gaps DEL940-989/E990V limits assumed): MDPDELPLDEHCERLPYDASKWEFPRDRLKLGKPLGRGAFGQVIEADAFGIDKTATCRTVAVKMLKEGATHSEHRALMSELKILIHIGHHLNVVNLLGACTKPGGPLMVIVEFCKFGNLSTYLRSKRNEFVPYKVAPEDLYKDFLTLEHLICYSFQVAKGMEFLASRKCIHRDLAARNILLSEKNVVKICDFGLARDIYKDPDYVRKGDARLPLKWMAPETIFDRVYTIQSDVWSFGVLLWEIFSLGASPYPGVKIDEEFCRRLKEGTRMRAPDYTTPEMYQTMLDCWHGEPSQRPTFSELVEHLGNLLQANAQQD
From the text: This construct determines the ability of a test compound to inhibit tyrosine kinase activity. A construct (VEGF-R2Δ50) of the cytosolic domain of human vascular endothelial growth factor receptor 2 (VEGF-R2) lacking the 50 central residues of the 68 residues of the kinase insert domain was expressed in a baculovirus/insect cell system. Of the 1356 residues of full-length VEGF-R2, VEGF-R2Δ50 contains residues 806–939 and 990–1171, and also one point mutation (E99OV) within the kinase insert domain relative to wild-type VEGF-R2. Autophosphorylation of the purified construct was performed by incubation of the enzyme at a concentration of 4 μM in the presence of 3 mM ATP and 40 mM MgCl2 in 100 mM HEPES, pH 7.5, containing 5% glycerol and 5 mM DTT, at 4° C. for 2 h. […] See Parast et al., Biochemistry, 37,16788–16801 (1998).
as §1

PDGFRβ = biological target: T4, PDGFRβ (Homo sapiens, UniProt P09619); assay: PAE-PDGFRβ Phosphorylation in PAE-PDGFRB Cells Assay; type: cell-based; conditions: PAE cells overexpressing human PDGFRβ; read-out: PAE PDGFR autophos IC50
T4 construct: expressed in transfected cells; host or cells: porcine aorta endothelial (PAE) cells
T4 sequence (P09619 33-1106): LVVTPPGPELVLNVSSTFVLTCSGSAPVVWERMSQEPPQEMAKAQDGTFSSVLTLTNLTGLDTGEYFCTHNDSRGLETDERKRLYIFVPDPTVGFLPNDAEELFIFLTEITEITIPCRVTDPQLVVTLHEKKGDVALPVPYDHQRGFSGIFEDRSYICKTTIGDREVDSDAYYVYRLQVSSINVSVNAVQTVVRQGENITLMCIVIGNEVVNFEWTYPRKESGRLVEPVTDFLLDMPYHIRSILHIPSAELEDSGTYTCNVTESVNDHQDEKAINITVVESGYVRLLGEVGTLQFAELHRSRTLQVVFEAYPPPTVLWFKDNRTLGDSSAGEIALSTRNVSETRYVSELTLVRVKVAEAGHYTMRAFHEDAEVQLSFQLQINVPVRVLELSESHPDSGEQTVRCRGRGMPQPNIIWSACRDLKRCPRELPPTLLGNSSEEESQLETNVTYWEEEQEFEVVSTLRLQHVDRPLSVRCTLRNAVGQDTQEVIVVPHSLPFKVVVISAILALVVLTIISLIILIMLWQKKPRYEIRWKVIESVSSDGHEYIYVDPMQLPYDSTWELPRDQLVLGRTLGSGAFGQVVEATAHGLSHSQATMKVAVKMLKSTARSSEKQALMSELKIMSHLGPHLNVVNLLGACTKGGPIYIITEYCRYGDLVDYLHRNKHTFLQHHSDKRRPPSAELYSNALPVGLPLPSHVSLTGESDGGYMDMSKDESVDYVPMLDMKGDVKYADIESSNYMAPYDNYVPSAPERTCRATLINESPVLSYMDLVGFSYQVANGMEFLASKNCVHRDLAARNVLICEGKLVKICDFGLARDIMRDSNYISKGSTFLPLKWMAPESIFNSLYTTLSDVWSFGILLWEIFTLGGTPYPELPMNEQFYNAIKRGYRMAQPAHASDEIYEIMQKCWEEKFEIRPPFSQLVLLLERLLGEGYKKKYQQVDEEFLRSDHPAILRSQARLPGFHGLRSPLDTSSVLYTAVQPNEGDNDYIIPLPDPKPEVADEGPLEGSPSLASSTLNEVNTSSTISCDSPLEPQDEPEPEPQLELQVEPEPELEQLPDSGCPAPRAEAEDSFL
Method: This assay determines the ability of a test compound to inhibit the autophosphorylation of PDGFRβ in porcine aorta endothelial (PAE)-PDGFRβ cells. PAE cells that overexpress human PDGFRβ were used in this assay. The cells were cultured in Ham's F12 media supplemented with 10% fetal bovine serum (FBS) and 400 ug/ml G418. Twenty thousands cells were seeded in each well of a 96-well plate in 50 μL of growth media and allowed to attach for 6 hours at 37° C. Cells were then exposed to the starvation media (Ham's F12 media supplemented with 0.1% FBS) for 16 hours. After the starvation period was over, 10 μL of test agent in 5% DMSO in starvation media were added to the test wells and 10 μL of the vehicle (5% DMSO in starvation media) were added into the control wells. The final DMSO concentration in each well was 0.5%. Plates were incubated at 37° C. for 1 hour and the cells were then stimulated with 1 μg/mL PDGF-BB (R & D System) in the presence of 2 mM Na3VO4 for 8 minutes. The cells were washed once with 1 mm Na3VO4 in HBSS and lysed by adding 50 μL per well of lysis buffer. One hundred μL of dilution buffer were then added to each well and the diluted cell lysate was transferred to a 96-well goat ant-rabbit coated plate (Pierce), which was pre-coated with Rabbit anti Human PDGFRβ antibody (Santa Cruz). The plates were incubated at room temperature for 2 hours and washed seven times with 1% Tween 20 in PBS. HRP-PY20 (Santa Cruz) was diluted and added to the plate for a 30-minute incubation. Plates were then washed again and TMB peroxidase substrate (Kirkegaard & Perry) was added for a 10-minute incubation. One hundred μL of 0.09 N H2SO4 was added into each well of the 96-well plate to stop the reaction. Phosphorylation status was assessed by spectrophotometer reading at 450 nm. IC50 values were calculated by curve fitting using a four-parameter analysis.

HUVEC = assay: bFGF Huvec; type: cell-based; conditions: Homo sapiens
[3] = Human Liver Microsome (HLM) Assay; type: in vitro ADME
Method: Compound metabolism in human liver microsomes was measured by LC-MS analytical assay procedures as follows. First, human liver microsomes (HLM) were thawed and diluted to 5 mg/mL with cold 100 mM potassium phosphate (KPO4) buffer. Appropriate amounts of KPO4 buffer, NADPH-regenerating solution (containing B-NADP, glucose-6-phosphate, glucose-6-phosphate dehydrogenase, and MgCl2), and HLM were preincubated in 13×100 mm glass tubes at 37 C. for 10 min. (3 tubes per test compound—triplicate). Test compound (5 µM final) was added to each tube to initiate reaction and was mixed by gentle vortexing, followed by incubation at 37° C. […] Samples were centrifuged at 4000 rpm for 20 min. to precipitate proteins and salt (Beckman Allegra 6KR, S/N ALK98DO6, #634). Supernatant was transferred to new 12×75 mm glass tubes and evaporated by Speed-Vac centrifugal vacuum evaporator. Samples were reconstituted in 200 μL 0.1% formic acid/acetonitrile (90/10) and vortexed vigorously to dissolve. The samples were then transferred to separate polypropylene microcentrifuge tubes and centrifuged at 14000×g for 10 min. (Fisher Micro 14, S/N M0017580). […]
The combined compound samples were injected into the LC-MS system, composed of a Hewlett-Packard HP 1100 diode array HPLC and a Micromass Quattro II triple quadruple mass spectrometer operating in positive electrospray SIR mode (programmed to scan specifically for the molecular ion of each test compound. Each test compound peak was integrated at each timepoint. […]

inhibition at 1 µM (LCK)	inhibition at 1 µM (FGF-R1)	inhibition at 0.05 µM [2]	IC50 (PDGFRβ)	% remaining (HLM) ([3]; @2 h)	% remaining (HLM) ([3]; @0.5 h)	Ki ([2]; cell prints nM instead of % inhibition)	Structure (SMILES)	IC50 [1]	IC50 (HUVEC)
–	11%	45%	–	–	–	–	Cc1ccnc(/C=C/c2n[nH]c3cc(Nc4ccccc4C(=O)NCc4cc(C)nn4C)ccc23)c1 [Example 41, N-(2,5-Dimethyl-2H-pyrazol-3-ylmethyl)-2-{3-[(E)-2-(4-methyl-pyridin-2-yl)-vinyl]-1H-indazol-6-ylamino}-benzamide]	6.4 nM	3780 nM
–	59%	94%	–	–	–	–	Cc1cc(C)nc(/C=C/c2n[nH]c3cc(Nc4ccccc4C(=O)NCC#CC4CC4)ccc23)c1 [Example 18, N-(3-Cycloprop-2-ynyl)-2-{3-[(E)-2-(4,6-dimethyl-pyridin-2-yl)-vinyl]-1H-indazol-6-ylamino}-benzamide]	–	1880 nM
–	29%	64%	12.3 nM	–	–	–	C=C(C)CNC(=O)c1ccccc1Nc1ccc2c(/C=C/c3cc(C)cc(C)n3)n[nH]c2c1 [Example 15, 2-{3-[2-(4,6-Dimethyl-pyridin-2-yl)-vinyl]-1H-indazol-6-ylamino}-N-(2-methyl-allyl)-benzamide]	1.5 nM	1610 nM
–	–	–	5.8 nM	–	86@0.5 h %	3.11 nM	Cc1cc(CNC(=O)c2ccccc2Nc2ccc3c(/C=C/c4ccccn4)n[nH]c3c2)n(C)n1 [Example 65, N-(2,5-Dimethyl-2H-pyrazol-3-ylmethyl)-2-[3-(2-pyridin-2-yl-vinyl)-1H-indazol-6-ylamino]-benzamide]	3.4 nM	–
–	14%	65%	–	–	–	–	Cc1cc(CNC(=O)c2ccccc2Nc2ccc3c(/C=N/n4cccc4)n[nH]c3c2)n(C)n1 [Example 61, N-(2,5-Dimethyl-2H-pyrazol-3-ylmethyl)-2-[3-(pyrrol-1-yliminomethyl)-1H-indazol-6-ylamino]-benzamide]	6.5 nM	662 nM

Continued, compound first:

Structure (SMILES)	inhibition at 1 µM (LCK)	inhibition at 1 µM (FGF-R1)	inhibition at 0.05 µM [2]	IC50 (PDGFRβ)	% remaining (HLM) ([3]; @2 h)	% remaining (HLM) ([3]; @0.5 h)	Ki ([2]; cell prints nM instead of % inhibition)	IC50 [1]	IC50 (HUVEC)
CONC(=O)c1ccccc1Nc1ccc2c(/C=C/c3ccccn3)n[nH]c2c1 [Example 3(a), N-Methoxy-2-[3-((E)-2-pyridin-2-yl-vinyl)-1H-indazol-6-ylamino]-benzamide]	30%	99%	98%	–	–	–	–	12.7 nM	–
O=C(NCc1ccco1)c1ccccc1Nc1ccc2c(/C=C/c3ccccn3)n[nH]c2c1 [Example 3(i), N-Furan-2-ylmethyl-2-[3-((E)-2-pyridin-2-yl-vinyl)-1H-indazol-6-ylamino]-benzamide]	22%	45%	88%	1.9 nM	–	–	–	0.2 nM	1000 nM
C=CCONC(=O)c1ccccc1Nc1ccc2c(/C=C/c3ccccn3)n[nH]c2c1 [Example 3(b), N-Allyloxy-2-[3-((E)-2-pyridin-2-yl-vinyl)-1H-indazol-6-ylamino]-benzamide]	27%	96%	98%	–	84@2 h %	–	–	5.7 nM	–
O=C(NCc1ccccc1)c1ccccc1Nc1ccc2c(/C=C/c3ccccn3)n[nH]c2c1 [Example 3(g), N-Benzyl-2-[3-((E)-2-pyridin-2-yl-vinyl)-1H-indazol6-ylamino]-benzamide]	28%	72%	95%	–	–	72@0.5 h %	–	1.1 nM	–
